Here are results for 3 molecules from patent publication US20060148714A1, “Therapeutic peptide-based constructs” (priority 1999, published 2006).

Values after ≈ are worked out from the molar mass of the structure shown. Where a SMILES comes first, the peptide text is derived from it. Where no end group is shown, it is not given here. [ ]: non-standard residue; d: D form. The star is where a group is joined. 2‑biphenylenecarbonyl = O=C(c1ccc2c(c1)-c1ccccc1-2)*; Acetyl(2-naphthyl) = O=C(Cc1ccc2ccccc2c1)*; d1Nal = N[C@H](Cc1cccc2ccccc12)C(=O)O

In series [1] the test system is Factor Xa neutralization by ATIII/heparin complexes. Briefly: Chromostrate heparin anti-Factor Xa assay (heparin neutralization). Particulars: absorbance at 405 nm. The format is biochemical.
Series [2] in a line: Behaviour in 1 mg/ml stock solution. The format is physicochemical. Details: key: b: precipitated in 1 mg/ml stock solution. Particulars: no IC50 given.
In series [3] the test system is human umbilical vein endothelial cells (HUVEC). It counts as cell-based. Particulars: 72 h. The method, then:
Briefly, human umbilical vein endothelial cells (HUVEC) were cultured in EGM-2 medium (Clonetics Corp., San Diego, Calif.), harvested and plated onto a 96-well culture plate. After 24 hours of quiescence, the cells were co-cultured with various peptide-based constricts in the presence of growth factors for 72 hours to test their activity. Cell proliferation was quantitated by tritiated thymidine incorporation into DNA and was expressed in counts per minute (cpm).
Details of the experimental procedures were as follows: HUVEC cells were cultured in EGM-2 media from Clonetics Corp., a subsidiary of BioWhittaker, Inc., San Diego, Calif. [EGM-2 is Endothelial Cell Basal Medium-2 (EMB-2) supplemented with growth factors (hFGF-B, VEGF, IGF-1, hEGF) ascorbic acid, heparin, GA-1000 and 2% FBS), in T75 flasks until confluent (˜4-7 days). Cells were harvested by trypsinizing the cells using 0.025% trypsin/EDTA for 5 minutes. To stop the reaction, 2-5% FBS was added. The cells were centrifuged and washed 3 times using Hank's Balanced Salt Solution (HBSS) or Dulbecco's Phosphate Buffered Saline D-PBS. The pellet was then resuspended in EBM-2 supplemented with 0.1% FBS and GA-1000 was used. The cells were counted and a cell suspension was prepared at 2×10^5/mL in EBM-2 with 0.1% FBS; cells were dispensed into a 96-well flat bottomed culture plate at 0.1 mL/well (total: ˜20,000 cells/well in 0.1% FBS-EBM-2). Incubation continued at 37° C. in 5% CO2 for 20-24 hours. The next day peptide-based constructs were prepared for testing in a 96 well plate. The supernatant was aspirated from the cell-well, replaced with EBM-2 or the testing reagent at 20 μL/well. Then, 180 μL/well of 1.12% FBS-GFS were added to make a final concentration of 1% FBS-GFS in EBM-2. This aspiration and addition was done well-by-well. ^3H-thymidine (100 μCi/mL) was added at 10 μL/well (1 μCi/well, final). Incubation continued at 37° C., 5% CO2 for 72 hours. To harvest the plate, the supernatant was aspirated off from the cell-well and then 75 μL-100 μL/well of 0.025% trypsin-EDTA was added. After incubation for 8-10 minutes at room temperature in the hood, the cells were checked and 100 μL/well of 2-5% FBS-PBS was added to stop the reaction. The plate was then harvested, dried and counted using an Inotech cell harvester (Inotech Biosystems, INB-384, Sample Processing and Filter Counting System, Lansing, Mich.).

Series [4] deals with E. coli (J5 and 0111 B4), Staphylococcus aureus and Candida albicans. Briefly: Broth and/or radial diffusion antimicrobial assays. It counts as cell-based.
Series [5] has as its system retinal endothelial cells. Description: Retinal endothelial cell growth stimulated by VEGF (DNA content). It counts as cell-based, bovine. Particulars: 5 μg/mL and 15 μg/mL. The protocol: In these experiments, peptide-based constructs are tested for their activity on the action of VEGF, bFGF, IGF-1 and conditioned media (hypoxia and hyperglycemia) on the in vitro growth and migration of retinal pigmented epithelial cells (RPE), retinal microvessel pericytes, and retinal endothelial cells. Effects are evaluated on gene expression under hypoxic or […] conditions. In additional experiments, the effects of such constructs are characterized in vivo on the neovascular responses to hyperoxia in the retina of the neonatal mouse.
For the in vitro culture experiments, retinal microvessel pericytes, retinal endothelial cells, and retinal pigmented epithelial cells (RPE) are cultured from bovine retina. Dose responses and time course for growth and migration as stimulated by VEGF, bFGF, and IGF-1 are performed. For example, retinal endothelial cell growth as stimulated by VEGF was inhibited with 5 μg/mL and 15 μg/mL XMP.679 as measured by DNA content (ng/cell well). […] When the dose responses of these growth factors and conditioned media are determined, the effect of peptide-based constructs independently, and in combination with the growth factors described above, are tested in growth and migration assays.

Regarding “2-biphenylenecarbonyl-k-l-f-r-(naph-a)-q-a-k ({2‑biphenylenecarbonyl}-[dK][dL][dF][dR][dNal][dQ][dA][dK]; not fully specified; printed as 2-biphenylenecarbonyl-k-l-f-r-(naph-a)-q-a-k) [XMP.699]”, in series [1], the “Assay A: percent heparin neutralization relative to protamine (100%)” value is reported as 45% and the “Assay B: percent heparin neutralization relative to protamine (100%)” value is listed as 23%. In series [2], the “precipitated in 1 mg/ml stock solution” value was “b”.

Take “2-naphthylacetyl-k-l-f-r-(naph-a)-q-a-k ({Acetyl(2-naphthyl)}-[dK][dL][dF][dR][dNal][dQ][dA][dK]; not fully specified; printed as 2-naphthylacetyl-k-l-f-r-(naph-a)-q-a-k) [XMP.666]”: in series [1], the “Assay A: percent heparin neutralization relative to protamine (100%)” value was 39% and the “Assay B: percent heparin neutralization relative to protamine (100%)” value was found to be 18%. The “precipitated in 1 mg/ml stock solution” value in series [2] is “b”.

`CC(C)C[C@@H](NC(=O)[C@H](N)CCCCN)C(=O)N[C@H](Cc1ccccc1)C(=O)N[C@H](CCCCN)C(=O)N[C@H](Cc1cccc2ccccc12)C(=O)N[C@H](CCC(N)=O)C(=O)N[C@H](C)C(=O)N[C@H](CCCCN)C(=O)N[C@H](Cc1cccc2ccccc12)C(=O)N[C@H](CCCCN)C(=O)NCC(N)=O` [XMP.679, k-l-f-k-(naph-a)-q-a-k-(naph-a)-k-g] (H-[dK][dL][dF][dK][d1Nal][dQ][dA][dK][d1Nal][dK]G-NH2; N-terminus assumed): the IC50 (in general, the concentration at which inhibition is half-maximal) in series [3] is 6.3 ± 0.9 µg/mL (≈ 4.37 µM). In series [1], the “Assay A: percent heparin neutralization relative to protamine (100%)” value worked out at 96% and the “Assay B: percent heparin neutralization relative to protamine (100%)” value turned out to be 94%. Further, in series [4], the antimicrobial activity entry is recorded as “highest antimicrobial activities”. Besides, in series [5], the “cell growth by DNA content in treated VEGF-stimulated cells versus unstimulated cells” value is “comparable with that of cells not stimulated by VEGF” and the “retinal endothelial cell growth as stimulated by VEGF, measured by DNA content (ng/cell well)” value is listed as “inhibited”.
